Assay results as given in PubChem BioAssay AID1259411 (Chemical Carcinogenesis Research Information System (CCRIS), 2018).
Active and inactive are the calls of the source. The rule behind the calls is not given here.

System: rodent carcinogenicity bioassays, tumor incidence
Test: CCRIS carcinogenicity studies
Outline: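 Archive of carcinogenicity, mutagenicity, tumor promotion and tumor inhibition results drawn from journals, NCI reports and other sources, expert-reviewed; covers 1985-2011 and is no longer updated.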

Measured: carcinogen call

COP(=O)(OC)OC
active: Species: MOUSE, Strain/Sex: B6C3F1/FEMALE, Route: GAVAGE, Dose: 0, 250, 500 MG/KG 3/WK FOR 103 WK, Dose: 0, 250, 500 MG/KG 3/WK FOR 103 WK, Tumor Site: Type of Lesion: UTERUS (ENDOMETRIUM): ADENOCARCINOMA (NOS) active; positive
inactive: Species: MOUSE, Strain/Sex: B6C3F1/MALE, Route: GAVAGE, Dose: 0, 250, 500 MG/KG 3/WK FOR 103 WK, Dose: 0, 250, 500 MG/KG 3/WK FOR 103 WK inactive; negative | Species: RAT, Strain/Sex: F344/FEMALE, Route: GAVAGE, Dose: 0, 50, 100 MG/KG 3/WK FOR 104 WK (STUDY DURATION: 105 WK), Dose: 0, 50, 100 MG/KG 3/WK FOR 104 WK (STUDY DURATION: 105 WK) inactive; negative | Species: RAT, Strain/Sex: WISTAR/FEMALE, Route: ORAL, Dose: 0, 1, 10, 100 MG/KG/D IN DRINKING WATER FOR DURATION OF STUDY, HIGH DOSE REDUCED TO 50 MG/KG IN WK 54 (STUDY DURATION: 3, Dose: 0, 1, 10, 100 MG/KG/D IN DRINKING WATER FOR DURATION OF STUDY, HIGH DOSE REDUCED TO 50 MG/KG IN WK 54 (STUDY DURATION: 3 inactive; negative | Species: RAT, Strain/Sex: WISTAR/MALE, Route: ORAL, Dose: 0, 1, 10, 100 MG/KG/D IN DRINKING WATER FOR DURATION OF STUDY, HIGH DOSE REDUCED TO 50 MG/KG IN WK 54 (STUDY DURATION: 3, Dose: 0, 1, 10, 100 MG/KG/D IN DRINKING WATER FOR DURATION OF STUDY, HIGH DOSE REDUCED TO 50 MG/KG IN WK 54 (STUDY DURATION: 3 inactive; negative

O=[N+]([O-])c1ccc2ccc3cccc4c3c2c1C1OC41 (stereo not given)
inactive: Species: MOUSE, Strain/Sex: B6C3F1/FEMALE, Route: INTRAPERITONEAL, Dose: 0, 7 NMOL (TOTAL DOSE), 1/7, 2/7 AND 4/7 OF THE TOTAL DOSE ADMINISTERED WITHIN 24 HR OF BIRTH AND AT 8 AND 15 D OF AGE inactive; negative | Species: MOUSE, Strain/Sex: B6C3F1/MALE, Route: INTRAPERITONEAL, Dose: 0, 7 NMOL (TOTAL DOSE), 1/7, 2/7 AND 4/7 OF THE TOTAL DOSE ADMINISTERED WITHIN 24 HR OF BIRTH AND AT 8 AND 15 D OF AGE inactive; negative

Cc1cc2ccccc2c2ccc3c(c12)[C@H]1O[C@H]1[C@@H](O)[C@H]3O
active: Species: MOUSE, Strain/Sex: ICR/FEMALE, Route: INTRAPERITONEAL, Dose: 8 NMOL/5 µL DMSO ON DAY 1, 16 NMOL/10 µL ON DAY 8, AND 32 NMOL/20 µL ON DAY 15 OF AGE (STUDY DURATION: 35 WK), Tumor Site: Type of Lesion: LUNG: TUMORS active; positive | Species: MOUSE, Strain/Sex: ICR/MALE, Route: INTRAPERITONEAL, Dose: 8 NMOL/5 µL DMSO ON DAY 1, 16 NMOL/10 µL ON DAY 8, AND 32 NMOL/20 µL ON DAY 15 OF AGE (STUDY DURATION: 35 WK), Tumor Site: Type of Lesion: LIVER: TUMORS active; positive

CCCCC(CC)COC(=O)c1ccccc1C(=O)OCC(CC)CCCC (stereo not given)
active: Species: MOUSE, Strain/Sex: B6C3F1/FEMALE, Route: ORAL, Dose: 0, 3000, 6000 PPM IN DIET FOR 102-104 WK (STUDY DURATION: 102-104 WK), Dose: 0, 3000, 6000 PPM IN DIET FOR 102-104 WK (STUDY DURATION: 102-104 WK), Tumor Site: Type of Lesion: LIVER: CARCINOMA, CARCINOMA OR ADENOMA active; positive | Species: MOUSE, Strain/Sex: B6C3F1/FEMALE, Route: ORAL, Dose: 0, 3000, 6000 PPM IN DIET FOR 103 WK (STUDY DURATION: 105 WK), Dose: 0, 3000, 6000 PPM IN DIET FOR 103 WK (STUDY DURATION: 105 WK), Tumor Site: Type of Lesion: LIVER: HEPATOCELLULAR CARCINOMA active; positive | Species: MOUSE, Strain/Sex: B6C3F1/MALE, Route: ORAL, Dose: 0, 3000, 6000 PPM IN DIET FOR 102-104 WK (STUDY DURATION: 102-104 WK), Dose: 0, 3000, 6000 PPM IN DIET FOR 102-104 WK (STUDY DURATION: 102-104 WK), Tumor Site: Type of Lesion: LIVER: CARCINOMA, CARCINOMA OR ADENOMA active; positive | Species: MOUSE, Strain/Sex: B6C3F1/MALE, Route: ORAL, Dose: 0, 3000, 6000 PPM IN DIET FOR 103 WK (STUDY DURATION: 104-105 WK), Dose: 0, 3000, 6000 PPM IN DIET FOR 103 WK (STUDY DURATION: 104-105 WK), Tumor Site: Type of Lesion: LIVER: HEPATOCELLULAR CARCINOMA active; positive | Species: RAT, Strain/Sex: F344/FEMALE, Route: ORAL, Dose: 0, 6000, 12000 PPM IN DIET FOR 102-104 WK (STUDY DURATION: 102-104 WK), Dose: 0, 6000, 12000 PPM IN DIET FOR 102-104 WK (STUDY DURATION: 102-104 WK), Tumor Site: Type of Lesion: LIVER: CARCINOMA, CARCINOMA OR ADENOMA active; positive | Species: RAT, Strain/Sex: F344/FEMALE, Route: ORAL, Dose: 0, 6000, 12000 PPM IN DIET FOR 103 WK (STUDY DURATION: 105 WK), Dose: 0, 6000, 12000 PPM IN DIET FOR 103 WK (STUDY DURATION: 105 WK), Tumor Site: Type of Lesion: LIVER: HEPATOCELLULAR CARCINOMA, NEOPLASTIC NODULE active; positive | Species: RAT, Strain/Sex: F344/MALE, Route: ORAL, Dose: 0, 2% IN DIET FOR 78 WK (STUDY DURATION: 78 WK), Tumor Site: Type of Lesion: LIVER: NEOPLASM active; positive | Species: RAT, Strain/Sex: F344/MALE, Route: ORAL, Dose: 0, 2% IN DIET FOR 108 WK (STUDY DURATION: 108 WK), Tumor Site: Type of Lesion: LIVER: NEOPLASTIC NODULE OR HEPATOCELLULAR CARCINOMA active; positive | Species: RAT, Strain/Sex: F344/MALE, Route: ORAL, Dose: 0, 6000, 12000 PPM IN DIET FOR 102-104 WK (STUDY DURATION: 102-104 WK), Dose: 0, 6000, 12000 PPM IN DIET FOR 102-104 WK (STUDY DURATION: 102-104 WK), Tumor Site: Type of Lesion: LIVER: CARCINOMA, CARCINOMA OR ADENOMA active; positive | Species: RAT, Strain/Sex: F344/MALE, Route: ORAL, Dose: 0, 6000, 12000 PPM IN DIET FOR 103 WK (STUDY DURATION: 104-105 WK), Dose: 0, 6000, 12000 PPM IN DIET FOR 103 WK (STUDY DURATION: 104-105 WK), Tumor Site: Type of Lesion: LIVER: HEPATOCELLULAR CARCINOMA OR NEOPLASTIC NODULE active; positive | Species: RAT, Strain/Sex: SPRAGUE-DAWLEY/MALE (31-167/GROUP), Route: ORAL, Dose: 0, 30, 95, 300 MG/KG/D IN DIET UP TO 159 WK (STUDY DURATION: LIFE TIME), Dose: 0, 30, 95, 300 MG/KG/D IN DIET UP TO 159 WK (STUDY DURATION: LIFE TIME), Tumor Site: Type of Lesion: TESTIS: LEYDIG CELL TUMORS active; positive | Species: RAT, Strain/Sex: SPRAGUE-DAWLEY/MALE (31-167/GROUP), Route: ORAL, Dose: 0, 30, 95, 300 MG/KG/D IN DIET UP TO 159 WK (STUDY DURATION: LIFETIME), Dose: 0, 30, 95, 300 MG/KG/D IN DIET UP TO 159 WK (STUDY DURATION: LIFETIME), Tumor Site: Type of Lesion: LIVER: CHOLANGIOCELLULAR TUMORS, TESTIS: LEYDIG CELL TUMORS (SIGNIFICANT DOSE RELATED TREND, INCIDENCE COMPARED TO CONTR, Tumor Site: Type of Lesion: LIVER: CHOLANGIOCELLULAR TUMORS, TESTIS: LEYDIG CELL TUMORS (SIGNIFICANT DOSE RELATED TREND, INCIDENCE COMPARED TO CONTR active; positive

O=C1NC(=O)C(=O)C(=O)N1
active: Species: Rat, Strain/Sex: WBN/Kob (Diabetic)/Female (17/group), Route: Intravenous, Dose: 0, 40 mg/kg once, study duration 75 wks, Tumor Site: Type of Lesion: Forestomach: squamous cell carcinoma active; positive | Species: Rat, Strain/Sex: WBN/Kob (Diabetic)/Male (31/ group), Route: Intravenous, Dose: 0, 50 mg/kg once, study duration 75 wks, Tumor Site: Type of Lesion: Forestomach: squamous cell carcinoma active; positive

O=c1[nH]c2ccccc2c2ccccc12
inactive: Species: MOUSE, Strain/Sex: CD-1/FEMALE, Route: INTRAPERITONEAL, Dose: 0, 5, 10 AND 20 µL OF A 0.05 MOLAR SOLUTION ON DAYS 1, 8 AND 15 OF LIFE RESPECTIVELY (TOTAL DOSE: 1.75 UMOL) (STUDY DURA, Dose: 0, 5, 10 AND 20 µL OF A 0.05 MOLAR SOLUTION ON DAYS 1, 8 AND 15 OF LIFE RESPECTIVELY (TOTAL DOSE: 1.75 UMOL) (STUDY DURA inactive; negative | Species: MOUSE, Strain/Sex: CD-1/MALE, Route: INTRAPERITONEAL, Dose: 0, 5, 10 AND 20 µL OF A 0.05 MOLAR SOLUTION ON DAYS 1, 8 AND 15 OF LIFE RESPECTIVELY (TOTAL DOSE: 1.75 UMOL) (STUDY DURA, Dose: 0, 5, 10 AND 20 µL OF A 0.05 MOLAR SOLUTION ON DAYS 1, 8 AND 15 OF LIFE RESPECTIVELY (TOTAL DOSE: 1.75 UMOL) (STUDY DURA inactive; negative
